Results from patent publication EP4745138A1, “THIO-GLUTARIMIDO ISOINDOLINONE DERIVATIVE, BIFUNCTIONAL PROTEIN DEGRADER CONTAINING SAME, AND USES THEREOF” (Gluetacs Therapeutics (Shanghai) Co., Ltd., priority 2023, dated 2025).
Where two headings read alike, the source gives them in different places.

Experiments:
[1] = system: CFPAC-1; assay: Tumor cell proliferation inhibition (CellTiter-Meiluncell Luminescent Cell Viability Assay); format: cell-based; conditions: Homo sapiens, 96 hours, Table I-10, BCR-ABL inhibitors
Outline: (§1)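 Following overnight seeding, tumor cells received serial compound dilutions to final levels that included 10 nM and 500 nM. Viability was assessed by luminescence at the end of the specified exposure time. Cultures were kept at 37°C with 5% CO2.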

[2] = target: T1, human Cereblon WT GST-tagged protein (Homo sapiens, UniProt Q96SW2); assay: CRBN-binding affinity, HTRF (CEREBLON BINDING kit); conditions: for inhibition at 0.5 µM: read-out: Inhibition Rate at 0.5 µM (%); for inhibition at 2 µM: read-out: Inhibition Rate at 2 µM (%)
T1 construct: purchased CISBIO 64BDCRBNPEH
T1 sequence (Q96SW2 whole entry): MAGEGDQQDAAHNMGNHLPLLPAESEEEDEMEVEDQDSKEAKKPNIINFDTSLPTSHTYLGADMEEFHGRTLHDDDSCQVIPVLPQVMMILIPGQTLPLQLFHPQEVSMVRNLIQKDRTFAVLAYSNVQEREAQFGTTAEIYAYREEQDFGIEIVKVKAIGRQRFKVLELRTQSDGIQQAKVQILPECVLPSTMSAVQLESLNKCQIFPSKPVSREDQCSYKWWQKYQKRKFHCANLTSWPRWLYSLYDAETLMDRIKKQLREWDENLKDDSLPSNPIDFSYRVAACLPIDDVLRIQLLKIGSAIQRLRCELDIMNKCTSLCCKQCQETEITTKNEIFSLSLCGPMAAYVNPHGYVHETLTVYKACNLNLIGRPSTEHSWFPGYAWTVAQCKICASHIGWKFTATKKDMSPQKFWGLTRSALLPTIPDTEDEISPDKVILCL
Outline: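 Competitive HTRF format: test compounds diluted in diluent #9 (1X) were combined with GST-tagged Cereblon, then a premixed thalidomide-red tracer plus anti-GST europium antibody; final compound concentrations were 2 µM and 0.5 µM. Blank wells received diluent and PROTAC binding buffer instead of compound and protein.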

[3] = system: TMD8; assay: Tumor cell proliferation inhibition (CellTiter-Meiluncell Luminescent Cell Viability Assay); format: cell-based; conditions: Homo sapiens, 96 hours; for inhibition at 0.01 µM: 10 nM, read-out: Inhibition Rate at 10 nM (%); for inhibition at 0.5 µM: 500 nM, read-out: Inhibition Rate at 500 nM (%)
Outline: as §1

[4] = system: EGFR; assay: Western blot, target protein degradation in H1975 Cell; format: cell-based, Human; conditions: substrate protein remaining %, treated at 500 nM and 50 nM, 24 hours
Method: (§2) Conventional Western blot assay was performed to evaluate the effects of the compounds of the present disclosure on the expression of target proteins in cells.
(§3) (1) Cell Seeding and Protein Harvesting: The selected cells were processed according to the cell seeding procedure and protein harvesting procedure in Table II-2. Table II-2 Cell Seeding and Protein Harvesting Procedures
(§4) (2) To the collected supernatant, 5X SDS sample loading buffer was added, followed by denaturation at 95°C for 5 minutes. The denatured samples were then separated by SDS-PAGE electrophoresis on a polyacrylamide gel. Proteins were transferred to a nitrocellulose membrane (0.45 µm NC membrane), blocked with blocking buffer at room temperature for 1 hour, and subjected to antibody incubation and development procedures according to the antibody manufacturer's instructions (Cell Signaling Technology).
(§5) Half-Maximal Degradation Concentration value (the drug concentration required for degrading proteins by 50%, abbreviated as DC50) reads method: comparing the grayscale values of Western blot bands from drug-treated samples with those from blank DMSO-treated controls, and identifying the drug concentration range at which the grayscale value is half that of the DMSO-treated control bands.
(§6) DC50 values can be calculated using ImageJ software to measure grayscale values of Western blot bands from drug-treated samples. The concentration-response curve is fitted to estimate the drug concentration corresponding to half the grayscale value.
(§7) Target protein remaining (%) refers to the percentage of target protein remaining in cells after treatment with protein degrader compounds.
(§8) Calculation method for target protein remaining (%): Use ImageJ software to measure grayscale values of Western blot bands from drug (protein degrader)-treated samples. The grayscale value of drug-treated bands is divided by that of internal control protein bands, and the resulting quotient is normalized to obtain the relative percentage of remaining target protein after protein degrader treatment. Target protein degradation rate(%) = 1−target protein remaining(%). [formula]

[5] = system: RPMI-8226; assay: Tumor cell proliferation inhibition (CellTiter-Meiluncell Luminescent Cell Viability Assay); format: cell-based; conditions: Homo sapiens, 96 hours, Table I-3, EGFR inhibitors
Outline: as §1

[6] = system: MV-4-11; assay: as above; format: cell-based; conditions: Homo sapiens, 96 hours; for inhibition at 0.01 µM: MV4-11, 10 nM, read-out: Inhibition Rate at 10 nM (%); for inhibition at 0.5 µM: MV4-11, 500 nM, read-out: Inhibition Rate at 500 nM (%)
Outline: as §1

[7] = system: SW620; assay: as above; format: cell-based; conditions: Homo sapiens, 96 hours; for inhibition at 0.01 µM: SW-620, 10 nM, read-out: Inhibition Rate at 10 nM (%); for inhibition at 0.5 µM: SW-620, 500 nM, read-out: Inhibition Rate at 500 nM (%)
Outline: as §1

[8] = target: T2, FAK (Homo sapiens, UniProt Q05397); assay: Western blot, target protein degradation in A549 Cell; format: cell-based; conditions: substrate protein remaining %, treated at 500 nM and 50 nM, 24 hours
T2 construct: endogenous in cells; host or cells: A549
T2 sequence (Q05397 whole entry): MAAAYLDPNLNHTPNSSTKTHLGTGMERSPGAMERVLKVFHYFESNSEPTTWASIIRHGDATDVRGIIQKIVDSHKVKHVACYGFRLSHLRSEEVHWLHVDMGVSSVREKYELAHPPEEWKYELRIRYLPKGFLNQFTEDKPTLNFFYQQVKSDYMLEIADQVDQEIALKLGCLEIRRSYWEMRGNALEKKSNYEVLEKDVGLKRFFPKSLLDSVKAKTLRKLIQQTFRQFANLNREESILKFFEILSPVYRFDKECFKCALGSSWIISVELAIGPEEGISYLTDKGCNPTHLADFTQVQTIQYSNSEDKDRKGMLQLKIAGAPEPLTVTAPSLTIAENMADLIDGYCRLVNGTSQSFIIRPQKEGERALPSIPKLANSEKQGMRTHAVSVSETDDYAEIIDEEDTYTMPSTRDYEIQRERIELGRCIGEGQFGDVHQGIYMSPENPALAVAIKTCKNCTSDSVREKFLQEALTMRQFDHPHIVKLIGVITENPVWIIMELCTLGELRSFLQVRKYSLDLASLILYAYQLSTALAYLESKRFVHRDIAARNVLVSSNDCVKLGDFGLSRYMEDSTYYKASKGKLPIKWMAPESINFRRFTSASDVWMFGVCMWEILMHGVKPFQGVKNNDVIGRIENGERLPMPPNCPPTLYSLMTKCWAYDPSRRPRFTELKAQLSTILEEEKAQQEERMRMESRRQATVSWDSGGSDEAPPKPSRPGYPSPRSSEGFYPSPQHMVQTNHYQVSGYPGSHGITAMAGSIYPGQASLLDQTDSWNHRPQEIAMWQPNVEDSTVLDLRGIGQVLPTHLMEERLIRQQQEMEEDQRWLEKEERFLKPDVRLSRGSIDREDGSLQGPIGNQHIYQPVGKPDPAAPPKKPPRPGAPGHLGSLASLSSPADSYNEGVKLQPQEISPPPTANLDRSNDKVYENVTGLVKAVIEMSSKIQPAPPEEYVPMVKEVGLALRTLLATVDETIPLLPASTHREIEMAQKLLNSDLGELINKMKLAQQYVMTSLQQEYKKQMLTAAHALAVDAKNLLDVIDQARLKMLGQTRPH
Method: as §2, §3, §4, §5, §6, §7, §8

[9] = system: MM.1S; assay: Tumor cell proliferation inhibition (CellTiter-Meiluncell Luminescent Cell Viability Assay); format: cell-based; conditions: Homo sapiens, MM1.S, MM.1S, 96 hours, Table I-12, FAK inhibitors; for inhibition at 0.01 µM: 10 nM, read-out: Inhibition Rate at 10 nM (%); for inhibition at 0.5 µM: 500 nM, read-out: Inhibition Rate at 500 nM (%)
Outline: as §1

[10] = 10 nM, read-out: Inhibition Rate at 10 nM (%)
[11] = 500 nM, read-out: Inhibition Rate at 500 nM (%)

Row | inhibition at 0.5 µM [2] | inhibition at 2 µM [2] | Structure (SMILES) | inhibition at 0.01 µM ([6]; Table I-12, FAK inhibitors) | inhibition at 0.5 µM ([6]; Table I-12, FAK inhibitors) | Degradation of substrate protein FAK [8] | other results
1 | – | – | Cc1ccc(C(=O)Nc2ccc(CN3CCN(Cc4ccc5c(c4)C(=S)N(C4CCC(=O)NC4=O)C5)CC3)c(C(F)(F)F)c2)cc1C#Cc1cnc2cccnn12 (stereo not drawn) [GT-09439, N-(4-((4-((2-(2,6-dioxopiperidin-3-yl)-3-thioxoisoindolin-5-yl)methyl)piperazin-1-yl)methyl)-3-(trifluoromethyl)phenyl)-3-(imidazo[1,2-b]pyridazin-3-ylethynyl)-4-methylbenzamide] | – | – | – | inhibition at 0.01 µM [1, 10]: 5 to 10%; inhibition at 0.5 µM [1, 11]: 60 to 70%
2 | 40 to 53% | 80 to 100% | CC(C)(C)c1cnc(CSc2cnc(NC(=O)C3CCN(Cc4ccc5c(c4)CN(C4CCC(=O)NC4=O)C5=S)CC3)s2)o1 (stereo not drawn) [GT-09435, N-(5-(((5-(tert-butyl)oxazol-2-yl)methyl)thio)thiazol-2-yl)-1-((2-(2,6-dioxopiperidin-3-yl)-1-thioxoisoindolin-5-yl)methyl)piperidine-4-carboxamide] | – | – | – | inhibition at 0.01 µM ([3]; Table I-7, CDK9 inhibitors): 0 to 5%; inhibition at 0.5 µM ([3]; Table I-7, CDK9 inhibitors): 70 to 80%
3 | 60 to 80% | 80 to 100% | COc1cc(N2CCC(N(C)Cc3ccc4c(c3)C(=S)N(C3CCC(=O)NC3=O)C4)CC2)c(C)cc1Nc1ncc(Br)c(Nc2ccc3nccnc3c2P(C)(C)=O)n1 (stereo not drawn) [GT-08761, 3-(6-(((1-(4-((5-bromo-4-((5-(dimethylphosphoryl)quinoxalin-6-yl)amino)pyrimidin-2-yl)amino)-5-methoxy-2-methylphenyl)piperidin-4-yl)(methyl)amino)methyl)-1-thioxoisoindolin-2-yl)piperidine-2,6-dione] | – | – | – | Degradation of substrate protein EGFR [4]: A (0% ≤ substrate protein remaining % ≤ 80%); inhibition at 0.01 µM [5, 10]: 20 to 30%; inhibition at 0.5 µM [5, 11]: 40 to 50%; inhibition at 0.01 µM ([6]; Table I-3, EGFR inhibitors): 5 to 10%; inhibition at 0.5 µM ([6]; Table I-3, EGFR inhibitors): 60 to 70%
4 | 0 to 10% | 10 to 20% | C=CC(=O)N1CCC[C@@H](n2nc(-c3ccc(Oc4ccccc4)cc3)c3c(N)ncnc32)C1 [ibrutinib, Ibrutinib, reference compound] | – | – | – | inhibition at 0.01 µM ([7]; Table I-4, BTK inhibitors): -5 to 0%; inhibition at 0.5 µM ([7]; Table I-4, BTK inhibitors): 0 to 5%; inhibition at 0.01 µM ([3]; Table I-4, BTK inhibitors): -5 to 0%; inhibition at 0.5 µM ([3]; Table I-4, BTK inhibitors): 30 to 40%
5 | – | – | C=CC(=O)Nc1cc(Nc2nccc(-c3cn(C)c4ccccc34)n2)c(OC)cc1N(C)CCN(C)C [Osimertinib, reference compound] | – | – | – | Degradation of substrate protein EGFR [4]: No degradation
6 | 30 to 40% | 80 to 100% | CN(c1nccnc1CNc1nc(Nc2ccc(N3CCN(Cc4ccc5c(c4)CN(C4CCC(=O)NC4=O)C5=S)CC3)cc2)ncc1C(F)(F)F)S(C)(=O)=O (stereo not drawn) [GT-08779, N-(3-(((2-((4-(4-((2-(2,6-dioxopiperidin-3-yl)-1-thioxoisoindolin-5-yl)methyl)piperazin-1-yl)phenyl)amino)-5-(trifluoromethyl)pyrimidin-4-yl)amino)methyl)pyrazin-2-yl)-N-methylmethanesulfonamide] | 10 to 20% | 70 to 80% | A (0% ≤ substrate protein remaining % ≤ 80%) | –
7 | – | – | CS(=O)(=O)c1cccc(CNc2nc(Nc3ccc(N4CCN(Cc5ccc6c(c5)CN(C5CCC(=O)NC5=O)C6=S)CC4)cc3)ncc2C(F)(F)F)c1 (stereo not drawn) [GT-08780, 3-(5-((4-(4-((4-((3-(methylsulfonyl)benzyl)amino)-5-(trifluoromethyl)pyrimidin-2-yl)amino)phenyl)piperazin-1-yl)methyl)-1-thioxoisoindolin-2-yl)piperidine-2,6-dione] | 20 to 30% | 70 to 80% | A (0% ≤ substrate protein remaining % ≤ 80%) | inhibition at 0.01 µM ([7]; Table I-12, FAK inhibitors): 10 to 20%; inhibition at 0.5 µM ([7]; Table I-12, FAK inhibitors): 40 to 50%; inhibition at 0.01 µM [9]: 20 to 30%; inhibition at 0.5 µM [9]: 40 to 50%
8 | 40 to 53% | 53 to 60% | CN(c1cccc(CNc2nc(Nc3ccc(N4CCN(Cc5cccc6c5CN(C5CCC(=O)NC5=O)C6=S)CC4)cc3)ncc2C(F)(F)F)c1)S(C)(=O)=O (stereo not drawn) [GT-08883, N-(3-(((2-((4-(4-((2-(2,6-dioxopiperidin-3-yl)-1-thioxoisoindolin-4-yl)methyl)piperazin-1-yl)phenyl)amino)-5-(trifluoromethyl)pyrimidin-4-yl)amino)methyl)phenyl) -N-methylmethanesulfonamide] | 20 to 30% | 70 to 80% | A (0% ≤ substrate protein remaining % ≤ 80%) | inhibition at 0.01 µM ([7]; Table I-12, FAK inhibitors): 30 to 40%; inhibition at 0.5 µM ([7]; Table I-12, FAK inhibitors): 40 to 50%; inhibition at 0.01 µM [9]: 10 to 20%; inhibition at 0.5 µM [9]: 40 to 50%
9 | 40 to 53% | 80 to 100% | Nc1ncnc2c1c(-c1ccc(Oc3ccccc3)cc1)nn2C1CCN(Cc2ccc3c(c2)CN(C2CCC(=O)NC2=O)C3=S)CC1 (stereo not drawn) [GT-09436, 3-(5-((4-(4-amino-3-(4-phenoxyphenyl)-1H-pyrazolo[3,4-d]pyrimidin-1-yl)piperidin-1-yl)methyl)-1-thioxoisoindolin-2-yl)piperidine-2,6-dione] | – | – | – | inhibition at 0.01 µM ([7]; Table I-4, BTK inhibitors): 70 to 80%; inhibition at 0.5 µM ([7]; Table I-4, BTK inhibitors): 80 to 100%; inhibition at 0.01 µM ([3]; Table I-4, BTK inhibitors): 15 to 20%; inhibition at 0.5 µM ([3]; Table I-4, BTK inhibitors): 80 to 100%
10 | 53 to 60% | 60 to 80% | CN(c1cccc(CNc2nc(Nc3ccc(N4CCN(Cc5ccc6c(c5)CN(C5CCC(=O)NC5=O)C6=S)CC4)cc3)ncc2C(F)(F)F)c1)S(C)(=O)=O (stereo not drawn) [GT-08781, N-(3-(((2-((4-(4-((2-(2,6-dioxopiperidin-3-yl)-1-thioxoisoindolin-5-yl)methyl)piperazin-1-yl)phenyl)amino)-5-(trifluoromethyl)pyrimidin-4-yl)amino)methyl)phenyl) -N-methylmethanesulfonamide] | 5 to 10% | 60 to 70% | A (0% ≤ substrate protein remaining % ≤ 80%) | –
11 | 40 to 53% | 60 to 80% | CN(c1nccnc1CNc1nc(Nc2ccc(N3CCN(Cc4cccc5c4CN(C4CCC(=O)NC4=O)C5=S)CC3)cc2)ncc1C(F)(F)F)S(C)(=O)=O (stereo not drawn) [GT-08783, N-(3-(((2-((4-(4-((2-(2,6-dioxopiperidin-3-yl)-1-thioxoisoindolin-4-yl)methyl)piperazin-1-yl)phenyl)amino)-5-(trifluoromethyl)pyrimidin-4-yl)amino)methyl)pyrazin-2-yl)-N-methylmethanesulfonamide] | 20 to 30% | 70 to 80% | A (0% ≤ substrate protein remaining % ≤ 80%) | –
